Marks after values point to notes of the source that are not given here. Ends that are not written are not given here.
What was measured:
[1] = test system: voltage-gated sodium channels; experiment: QPatch48 HT electrophysiology of sodium channels in SHSY-5Y cells; type: cell-based, human
Protocol: Using SHSY-5Y cells, electrophysiology was performed to measure ion channel activity using the QPatch48 HT (Sophion, Denmark). The samples tested were: • Negative control: 0.05% (v/v) Bovine Serum Albumin • Positive control: Tetradotoxin (TTX) at a concentration of 3 nM, 10 nM and 30 nM. • SEQ ID NO: 2—NH2 at a concentration of 0.005 mg/mL, 0.01 mg/ml and 0.05 mg/mL. • SEQ ID NO: 3—NH2 at a concentration of 0.005 mg/mL, 0.01 mg/ml and 0.05 mg/mL. • SEQ ID NO: 4—NH2 at a concentration of 0.005 mg/mL, 0.01 mg/ml and 0.05 mg/mL. • SEQ ID NO: 5—NH2 at a concentration of 0.005 mg/ml, 0.01 mg/mL and 0.05 mg/mL. • SEQ ID NO: 6—NH2 at a concentration of 0.005 mg/mL, 0.01 mg/ml and 0.05 mg/mL.
The percentage inhibition for each test dose application period was calculated as a reduction in mean cursor value (peak current) relative to the cursor value measured at the end of the vehicle control (pre-drug) and normalized to the maximum inhibition recorded with the supramaximal addition of TTX.

human NaV1.3 = biological target: T1, human NaV1.3 (Homo sapiens, UniProt Q9NY46); experiment: QPatch48 HT electrophysiology of NaV1.3 stably transfected into CHO cells; type: cell-based; details: 10 μM peptide, triplicate, vs separate negative control
T1 construct: expressed in transfected cells; host or cells: Chinese Hamster Ovary (CHO) cells, stably transfected
T1 sequence (Q9NY46 whole entry): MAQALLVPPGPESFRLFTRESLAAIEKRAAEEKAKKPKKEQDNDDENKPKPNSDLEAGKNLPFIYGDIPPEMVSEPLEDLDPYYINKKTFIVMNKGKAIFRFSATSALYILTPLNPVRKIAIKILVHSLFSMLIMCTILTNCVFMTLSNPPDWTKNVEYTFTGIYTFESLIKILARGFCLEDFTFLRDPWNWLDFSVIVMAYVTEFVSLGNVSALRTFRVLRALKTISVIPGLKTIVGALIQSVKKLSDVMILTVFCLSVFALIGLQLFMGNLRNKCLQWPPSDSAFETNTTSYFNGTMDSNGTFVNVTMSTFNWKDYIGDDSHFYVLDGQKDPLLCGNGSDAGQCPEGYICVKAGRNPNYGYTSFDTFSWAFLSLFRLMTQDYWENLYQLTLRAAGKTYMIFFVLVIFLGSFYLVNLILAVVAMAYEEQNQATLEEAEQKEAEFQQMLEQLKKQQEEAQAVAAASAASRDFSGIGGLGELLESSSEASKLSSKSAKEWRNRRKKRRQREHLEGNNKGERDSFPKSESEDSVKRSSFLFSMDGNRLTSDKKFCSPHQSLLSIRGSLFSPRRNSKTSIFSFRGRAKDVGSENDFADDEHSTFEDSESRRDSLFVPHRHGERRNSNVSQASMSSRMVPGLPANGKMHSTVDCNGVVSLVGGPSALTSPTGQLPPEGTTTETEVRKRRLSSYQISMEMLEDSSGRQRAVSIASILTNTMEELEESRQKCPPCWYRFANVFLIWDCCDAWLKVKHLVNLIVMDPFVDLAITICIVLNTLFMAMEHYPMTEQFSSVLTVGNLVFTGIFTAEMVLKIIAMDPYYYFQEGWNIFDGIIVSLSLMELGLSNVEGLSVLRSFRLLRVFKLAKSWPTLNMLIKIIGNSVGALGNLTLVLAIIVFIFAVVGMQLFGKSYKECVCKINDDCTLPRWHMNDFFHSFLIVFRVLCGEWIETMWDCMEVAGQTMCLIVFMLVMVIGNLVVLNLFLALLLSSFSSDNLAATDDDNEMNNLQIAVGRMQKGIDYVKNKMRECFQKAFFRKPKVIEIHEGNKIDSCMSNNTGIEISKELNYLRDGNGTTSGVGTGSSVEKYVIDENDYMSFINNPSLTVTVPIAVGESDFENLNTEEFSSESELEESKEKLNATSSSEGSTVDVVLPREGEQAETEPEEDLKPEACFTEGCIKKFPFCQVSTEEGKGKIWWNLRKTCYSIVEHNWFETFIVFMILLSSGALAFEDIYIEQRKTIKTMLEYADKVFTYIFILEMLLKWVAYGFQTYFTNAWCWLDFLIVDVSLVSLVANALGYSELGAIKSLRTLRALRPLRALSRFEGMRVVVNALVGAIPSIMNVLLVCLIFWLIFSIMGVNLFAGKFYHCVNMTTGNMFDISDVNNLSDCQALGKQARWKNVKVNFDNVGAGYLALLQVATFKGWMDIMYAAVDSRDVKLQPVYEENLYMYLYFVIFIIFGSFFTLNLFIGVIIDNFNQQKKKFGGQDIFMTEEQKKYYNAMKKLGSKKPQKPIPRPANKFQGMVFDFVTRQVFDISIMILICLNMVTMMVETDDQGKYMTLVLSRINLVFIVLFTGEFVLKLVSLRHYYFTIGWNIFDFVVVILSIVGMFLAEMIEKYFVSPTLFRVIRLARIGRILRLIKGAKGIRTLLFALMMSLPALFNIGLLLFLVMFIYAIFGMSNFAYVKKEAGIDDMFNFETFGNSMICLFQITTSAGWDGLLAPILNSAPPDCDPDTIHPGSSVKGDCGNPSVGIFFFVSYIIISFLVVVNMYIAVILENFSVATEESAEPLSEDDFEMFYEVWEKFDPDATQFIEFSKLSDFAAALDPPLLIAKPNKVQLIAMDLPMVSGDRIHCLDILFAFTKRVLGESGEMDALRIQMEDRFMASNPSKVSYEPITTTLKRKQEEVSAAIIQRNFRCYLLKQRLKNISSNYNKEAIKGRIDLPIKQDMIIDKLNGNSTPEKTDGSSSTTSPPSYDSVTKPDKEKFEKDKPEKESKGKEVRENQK
Protocol: Using human NaV1.3 stably transfected into Chinese Hamster Ovary (CHO) cells, electrophysiology was performed to measure ion channel activity using the QPatch48 HT (Sophion, Denmark). Experiments were performed in triplicate and using a concentration of peptide of 10 μM. A separate negative control was performed for each of the peptides. As positive control Amitriptyline was used.

[2] = test system: muscle contraction-related genes; experiment: RT-qPCR expression of muscle contraction-related genes in myocytes; type: cell-based, human; details: 0.01 or 0.005 mg/mL, 24 h
Protocol: A stock solution of the peptide was prepared in milli-Q water at 25 mg/mL. This stock was further diluted in the corresponding supplemented medium to obtain the final working concentrations of 0.01 and 0.005 mg/mL. Untreated cells were used as negative control samples.
The relevant genes for which the expression was measured were: SCN1B (Sodium Voltage-Gated Channel Beta Subunit 1), SCN4A (Sodium Voltage-Gated Channel Alpha Subunit 4), SCN3A (Sodium Voltage-Gated Channel Alpha Subunit 3), CALM3 (Calmodulin 3) and RAPSN (Receptor Associated Protein of the Synapse). The primers used for each of the genes were commercially available TaqMan Gene Expression Assay probes. The experiment was performed in vitro in myocytes, two concentrations of the peptide were tested (0.01 mg/ml and 0.005 mg/mL) at 24 h.
Briefly, human skeletal muscle myoblasts were seeded in 12-well plates at a density of 1×10^5 cells/well and maintained at standard culture conditions (SKM-M medium supplemented with 1% Antibiotic/Antimycotic; 37° C., 95% Relative Humidity, 5% CO2) for 48-72 hours until the plated myoblasts reached 80-90% confluence. […]
The obtained data were analyzed using the ΔΔCt method, which provides the target gene expression values as fold changes in the treated sample compared with an untreated basal sample. […]

HDFa cells [3] = experiment: Elastin synthesis in HDFa cells (Fastin Elastin Assay Kit); type: cell-based, human; details: 0.01 and 0.015 mg/ml, 48 hours, vs untreated samples
Protocol: A stock solution of the peptide was prepared in water at 25 mg/mL. This stock was further diluted to obtain the final working concentrations of 0.005, 0.01 or 0.015 mg/mL in complete medium (Medium 106 supplemented with 2% LSGS). Untreated cells were used as basal condition.
For this study, HDFa cells were seeded in a 12-well plate at a density of 120,000 cells/well and maintained at standard culture conditions (Medium 106+2% LSGS; 37° C., 95% Relative Humidity, 5% CO2) for 24 hours. Then, fibroblasts were treated for 48 hours with 0.005, 0.01 or 0.015 mg/mL of the peptide mentioned above. After treatment, cells were harvested for elastin quantification with the Fastin Elastin Assay Kit, according to manufacturer instructions. Each condition was performed at least in triplicate (n=3) in three independent experiments (N=3).

HDFa cells [4] = experiment: Procollagen I alpha 1 release from HDFa cells (ELISA); type: cell-based, human; details: 48 h
Protocol: A stock solution of the peptide was prepared in water at 25 mg/mL. This stock was further diluted to obtain the final working concentrations of 0.01, 0.015 or 0.05 mg/mL in complete medium (Medium 106 supplemented with 2% LSGS). Untreated cells were used as basal condition.
For this study, HDFa cells were seeded in a 24-well plate at a density of 100,000 cells/well and maintained at standard culture conditions (Medium 106 supplemented with 2% LSGS; 37° C., 95% Relative Humidity, 5% CO2) for 24 hours.
After 24 hours, cells were treated for 48 h with the peptide of the present invention mentioned above (0.01, 0.015 and 0.05 mg/mL). After treatments, supernatants were collected and centrifuged in order to eliminate cell debris and were kept at −80° C. until they were used for procollagen I alpha 1 quantification with a human procollagen I alpha 1 DuoSet ELISA kit according to manufacturer instructions. Each condition was performed at least in triplicate (n=3) in three independent experiments (N=3).

[5] = test system: Human Fibroblast (SF-TY JCRB); experiment: Hyaluronic acid synthesis in human skin fibroblasts (ELISA); type: cell-based; details: 48 hours, first experimental session; for % HA content: negative control = 100
Protocol: In this case the objective of this experiment was to evaluate in vitro the capability of the peptides of the present invention to increase Hyaluronic Acid (HA) synthesis or production in human skin fibroblasts. This evaluation was carried out by determination of HA amount after cell treatment with the peptide (at the different concentrations noted below), for 48 hours.
The experimental groups were: • Untreated cell cultures (negative control). • Cells treated with the peptide of the present invention (at 0.005 mg/mL, 0.01 mg/ml or 0.05 mg/mL).
Treatment was performed for 48 hours. Treatments were performed in triplicate and in two different experimental sessions.
The experimental model used in this study were Human Fibroblast (SF-TY JCRB) cultivated in MEM with fetal bovine serum 10% and 1% antibiotics at 37° C., 5% CO2.
Cells were seeded in 96-well plate at 1×10^4 cells/well and maintained for 24 h at standard culture conditions (37° C., 95% Relative Humidity, 5% CO2) before the treatment was applied.
At the end of the experimental period, the determination of Hyaluronic synthesis was carried out by means of ELISA method. Commercial kits were used for this purpose. The test kit employed a two-site sandwich ELISA to quantitate HA in samples. Briefly, an antibody specific for HA was pre-coated onto a microplate; Standards and samples were pipetted into the wells and any HA present got bound by the immobilized antibody; after removing any unbound substances, a biotin-conjugated antibody specific for HA was added to the wells; after washing, Streptavidin conjugated Horseradish Peroxidase (HRP) was added to the wells; following a wash to remove any unbound avidin-enzyme reagent, a substrate solution was added to the wells and color developed in proportion to the amount of HA bound in the initial step. The color development was stopped, and the intensity of the color was measured. A calibration curve of known concentrations of standard hyaluronic acid was used to perform the determination of the tested samples.
The results are expressed as % of HA content in cell culture medium and cell lysate, which is calculated by stablishing the content of HA in the negative control as 100% and making the appropriate comparison with the rest of the samples.

ECM-related genes = experiment: RT-qPCR expression of ECM-related genes in HDFa cells; type: cell-based, human
Protocol: A stock solution of the peptide was prepared in milli-Q water at 25 mg/mL. This stock was further diluted in the corresponding supplemented medium to obtain the final working concentrations of 0.05, 0.01 and 0.005 mg/mL. Untreated cells were used as negative control samples.
The relevant genes for which the expression was measured were: MMP1 (matrix metallopeptidase 1), HYAL1 (hyaluronidase 1), TIMP2 (TIMP metallopeptidase inhibitor 2), HAS1 (hyaluronan synthase 1), FBLN5 (fibulin 5), LOXL1 (lysyl oxidase like 1), COL4A1 (collagen type IV alpha 1 chain), COL3A1 (collagen type III alpha 1 chain) and COL7A1 (collagen type VII alpha 1 chain). The primers used for each of the genes were commercially available TaqMan Gene Expression Assay probes.
Briefly, HDFa cells were seeded in 12-well plates at a density of 1.5×10^5 cells/well and maintained at standard culture conditions (106 Medium supplemented with 1% LSGS; 37° C., 95% Relative Humidity, 5% CO2) for 24 hours. Then, cells were treated with the above-mentioned peptide at 0.005, 0.01 or 0.05 mg/mL for additional 6 or 24 hours.
Cells were finally lysed, and RNA extraction was performed using Qiagen RNeasy Mini kit following manufacturer's instructions. Purified RNAs were used to generate the corresponding cDNAs by reverse transcription which served as templates for amplification. RT-qPCR was performed with the panel of TaqMan assay probes specified above and 2x gene expression Master Mix using StepOne plus Real-Time PCR instrument. Amplification included 40 cycles of: 15 seconds at 95° C. (denaturation) and 1 minute at 60° C. (Annealing and extension).
The obtained data were analyzed using the ΔΔCt method, which provides the target gene expression values as fold changes in the treated sample compared with an untreated basal sample. Both samples were normalized with the relative expression of a housekeeping gene GAPDH (Glyceraldehyde 3-phosphate dehydrogenase).
The steps for analysis included: • 1. Calculate the average Ct for each condition • 2. Calculate the ΔCT test sample and the ΔCT calibrator sample • 3. Calculate the ΔΔCT: ΔΔCT=ΔCT test sample−ΔCT calibrator sample • 4. Obtain ratio by 2^−ΔΔCT

[6] = 24 h, 0.05 mg/ml of the peptide

## Ile-Glu-Pro-Tyr-Tyr-Val-NH2 (IEPYYV-NH2) [SEQ ID NO: 5—NH2]
[1]; 0.005 mg/mL, SHSY-5Y cells
  ranking of sodium channel inhibition among tested peptides at the lower concentration: performed the best

## NC1=N[C@H](O)[C@H]2[C@H]3O[C@]4(O)O[C@@H]([C@@H](O)[C@@]2(N1)[C@@H]4O)[C@]3(O)CO [TTX, tetrodotoxin, reference compound]
[1]
  blocking effect on sodium channels: full blocking effect

## Lys-His-Arg-Ser-Tyr-NH2 (KHRSY-NH2) [SEQ ID NO: 3—NH2]
Human NaV1.3
  inhibition of NaV1.3 inward currents: increased and statistically significant effect

## Lys-Arg-Arg-Tyr-Tyr-Cys-NH2 (KRRYYC-NH2) [SEQ ID NO: 2—NH2]
Human NaV1.3
  inhibition of NaV1.3 inward currents: increased and statistically significant effect

## KDRVY-NH2 [SEQ ID NO: 4—NH2, Lys-Asp-Arg-Val-Tyr-NH2]
[2]
  expression of sodium channels and muscle contraction-related genes (SCN1B, SCN4A, SCN3A, CALM3, RAPSN): downregulate
HDFa cells [3]
  elastin levels: increase of elastin levels
HDFa cells [4]; HDFa, 0.05 mg/mL (highest tested concentration)
  increase of procollagen I alpha 1 protein release: 53%
HDFa cells [4]; HDFa, 0.01, 0.015 and 0.05 mg/mL, vs untreated cells
  procollagen I alpha 1 protein release: increased at all tested concentrations, in a dose-dependent manner
[1]; 0.01 and 0.05 mg/mL, SHSY-5Y cells
  ranking of sodium channel inhibition among tested peptides at the two higher concentrations: best results
[5]; 0.005 mg/mL
  % Variation with regard to negative control: 7.57** %
  % HA content: 107.57** %
[5]; 0.01 mg/mL
  % Variation with regard to negative control: 21.75*** %
  % HA content: 121.75*** %
[5]; 0.05 mg/mL
  % Variation with regard to negative control: 39.21*** %
  % HA content: 139.21*** %
ECM-related genes; 6 h, 0.005 mg/ml of the peptide
  HYAL1 gene expression: downregulation
ECM-related genes; 6 h, 0.05 mg/ml of the peptide
  HAS1 gene expression: upregulation
ECM-related genes; 24 h, 0.01 mg/m of the peptide
  COL3A1 gene expression: upregulation
  COL4A1 gene expression: upregulation
  MMP1 gene expression: downregulation
ECM-related genes; [6]
  COL7A1 gene expression: upregulation
  FBLN5 gene expression: upregulation
  LOXL1 gene expression: upregulation
  TIMP2 gene expression: upregulation
